According to patent US11857567B2, “Hypertonic pharmaceutical compositions containing an anti-platinum chemoprotectant agent” (Decibel Therapeutics, Inc., priority 2018, dated 2024):

Test system: cisplatin-induced hearing loss in guinea pigs
Experiment: Hearing protection by locally delivered STS Composition from cisplatin challenge (ABR)
Assay type: in vivo, guinea pig
Settings: at both 24 kHz and 32 kHz
Source text: Historical ABR data were used to define a baseline. The animals were anesthetized with tiletamine hydrochloride and zolazepam hydrochloride (Zoletil). Acoustic stimuli were delivered via an earphone. Needle electrodes were placed near the ear canal at the causoventral position, the vertex of the skull, and a ground at the lower leg. The stimulus level was from 10 to 90 dB in 5 dB steps, and the tone-pip frequencies were 4, 24, and 32 kHz. The ceiling sound pressure level was 90 dB. ABR threshold was observed by visual inspection of stacked waveforms as the lowest sound pressure level, at which the waveform was above the noise floor.
An aqueous composition of 0.5M sodium thiosulfate/2% (w/v) hyaluronan (STS Composition) or vehicle was dosed intratympanically onto the round window in the left ear (LE) as described above, and the right ear (RE) was left untreated in the guinea pigs (FIG. 5).
Because of heterogeneity of hearing loss after cisplatin challenge, the untreated right ears was used to select the animals with hearing loss. There were 21 animals with right ear threshold >60 dB at 32 kHz. Of these 21 animals, 3 with otitis media were excluded, leaving 18 animals for the final analysis. 10 animals were dosed with vehicle and 8 animals were dosed with STS Composition (FIG. 4B). […]

In the case of `O=S([O-])([O-])=S.[Na+].[Na+]` [sodium thiosulfate], the “protection (on average)” value is reported as 80%.
